Values of other authors, collected in paper PMC8609999, “A Phase I trial of talazoparib in patients with advanced hematologic malignancies” (International Journal of Hematologic Oncology, 2021).

Test system: CLL or MCL patients
Design: method as in PMID 28643365
Conditions: not statistically significant; cited from earlier work

O=C(c1cc(Cc2n[nH]c(=O)c3ccccc23)ccc1F)N1CCN(C(=O)C2CC2)CC1 [olaparib]
Overall survival in patients with ATM mutations versus those without: trend towards improved overall survival
